Source: patent US20070142378A1, “Method of treating restless legs syndrome and/or periodic limb movement disorder with (2s,3s) 2-(3-chlorophenyl)-3,5,5-trimethyl-2-morpholinol” (Smith Kline Beecham Corporation, priority 2003, published 2007)
Counter-ions that a name gives are not always drawn.

What was measured:
[1] = test system: cell-lines expressing human monoamine transporters; experiment: Compound-induced cytotoxicity in the transporter-expressing cells; type: cell-based; conditions: at any of the concentrations causing reuptake inhibition
[2] = target: T1, dopamine transporter (DAT) (Homo sapiens, UniProt Q01959); experiment: Dopamine transporter (DAT) receptor occupancy study, PET with 11C-βCIT-FE; type: in vivo; conditions: for DAT receptor occupancy: Part A, healthy male volunteers, PET 2.5 hours after initiation of dosing; for average DAT receptor occupancy: Part B, 60 mg modified release oral once daily for 6 days
T1 construct: from tissue; host or cells: striatum of healthy male volunteers, in vivo PET with 11C-βCIT-FE
Description: The study was conducted in two parts. Part A utilized positron emission tomography (PET) to characterize the concentration-percent occupancy relationship with respect to the dopamine transporter (DAT) after dosing with intravenous compound of formula (I) to pseudo-steady-state. Part B utilized PET to evaluate the time course of occupancy at the dopamine transporter following steady-state dosing of the compound of formula (I) via a modified release oral formulation. The tracer used in this study to assess the occupancy at the DAT was ^11C-βCIT-FE.
Part A. Six healthy male volunteers each received a 20.6 mg intravenous dose of the compound of formula (I) administered via a 2-hour loading infusion followed by a 2-hour maintenance infusion to achieve pseudo-steady-state. Each subject then received two additional doses (61.8 mg and 91.2 mg) of the compound of formula (I), with each dose separated by 3 weeks. A baseline PET scan was performed between 1 and 7 days prior to first dosing with formula (I), and then each post-dose PET scan performed 2.5 hours after the initiation of each of the three dosing regimens.
The concentrate solution for infusion was formulated to contain 10 mg free base equivalent per mL as the hydrochloride salt of the compound of formula (I), and consisted of a clear, colorless solution, pH adjusted to approximately 4.5, buffered with 50 mmol citrate buffer. The product was diluted to a total volume of 250 mL with 0.9% weight-to-volume ratio (w/v) sodium chloride injection prior to being administered.
Part B. Six healthy male volunteers received 60 mg of the compound of formula (I) via a modified release oral formulation once daily for 6 days in order to achieve steady-state by the last day. Four ^11C-βCIT-FE PET scans were performed for each subject, the first between 1 and 7 days prior to dosing and the remaining three at 6, 12 and 24 hours following the final dose on Day 6. The oral formulations were uncoated tablets, containing 20 mg and 40 mg of the compound of formula (I) as the hydrochloride salt details of the formulations are set out below as Examples 6 and 7 (prepared by an analogous method to Examples 1 to 5 above).

[3] = target: T2, serotonin uptake, synaptosomes from rat hypothalamus (Rattus norvegicus, UniProt P31652); experiment: In vitro synaptosomal uptake of [3H]-serotonin; type: biochemical; conditions: at 30 μM
T2 construct: Synaptosomes for use in obtaining in vitro uptake data were prepared from hypothalamus or striatum by gently homogenizing the tissue; from tissue; host or cells: rat hypothalamus synaptosomes
From the text: Similarities and differences. Molecular Pharmacology, 21: p.

[4] = target: T3, noradrenaline (NA) uptake, synaptosomes from rat hypothalamus (Rattus norvegicus, UniProt Q63380); experiment: In vitro synaptosomal uptake of [3H]-NA; type: biochemical
T3 construct: Synaptosomes for use in obtaining in vitro uptake data were prepared from hypothalamus or striatum by gently homogenizing the tissue; from tissue; host or cells: rat hypothalamus synaptosomes (1100 x g supernatant)
Description: In vitro uptake was determined, as reported previously, using synaptosomes prepared from rat caudoputamen (for dopamine uptake) and hypothalamus (for NA and serotonin uptake) using [^3H]-dopamine, [^3H]-NA and [^3H]-serotonin as transport substrates, respectively. See Eckhardt, S. B., R. A. Maxwell, and R. M. Ferris, A Structure-Activity Study of the Transport Sites for the Hypothalamic and Striatal Catecholamine Uptake Systems. Similarities and differences. Molecular Pharmacology, 21: p. 374-9,1982
Synaptosomes for use in obtaining in vitro uptake data were prepared from hypothalamus or striatum by gently homogenizing the tissue in a 0.3 M sucrose/25 mM Tris pH 7.4 buffer containing iproniazid phosphate to inhibit monoamine oxidase. The homogenate was centrifuged at 1100×g at 4° C. for 10 min and the supernatant was used for uptake studies. […] Under these conditions uptake was linear with respect to both for substrate and tissue (with <5% total substrate transported). Non-specific uptake was defined as uptake at 0° C. [^3H]-substrate, which had been transported into synaptosomes, was separated from free [^3H]-substrate by filtration over GF/B filters and washing with cold Krebs-Henseleit buffer. The filters were counted for tritum in a liquid scintillation spectrometer.

T1 sequence (Q01959 whole entry): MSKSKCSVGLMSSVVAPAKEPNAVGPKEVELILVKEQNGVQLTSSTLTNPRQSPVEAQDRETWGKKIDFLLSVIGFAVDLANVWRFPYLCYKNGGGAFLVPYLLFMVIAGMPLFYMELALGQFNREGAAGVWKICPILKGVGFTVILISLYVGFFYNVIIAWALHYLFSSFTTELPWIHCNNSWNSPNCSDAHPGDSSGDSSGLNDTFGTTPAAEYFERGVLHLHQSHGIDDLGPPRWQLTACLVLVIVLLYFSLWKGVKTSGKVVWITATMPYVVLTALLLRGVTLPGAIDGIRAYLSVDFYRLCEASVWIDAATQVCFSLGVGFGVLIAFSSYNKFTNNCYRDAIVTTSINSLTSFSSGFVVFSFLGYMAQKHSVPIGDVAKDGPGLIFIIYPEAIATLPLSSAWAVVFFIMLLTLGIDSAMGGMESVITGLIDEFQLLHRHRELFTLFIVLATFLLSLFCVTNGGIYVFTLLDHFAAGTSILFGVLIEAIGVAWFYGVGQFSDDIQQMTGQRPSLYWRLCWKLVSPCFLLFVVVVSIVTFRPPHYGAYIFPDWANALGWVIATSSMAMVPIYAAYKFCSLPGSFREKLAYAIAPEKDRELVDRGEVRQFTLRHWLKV
T2 sequence (P31652 whole entry): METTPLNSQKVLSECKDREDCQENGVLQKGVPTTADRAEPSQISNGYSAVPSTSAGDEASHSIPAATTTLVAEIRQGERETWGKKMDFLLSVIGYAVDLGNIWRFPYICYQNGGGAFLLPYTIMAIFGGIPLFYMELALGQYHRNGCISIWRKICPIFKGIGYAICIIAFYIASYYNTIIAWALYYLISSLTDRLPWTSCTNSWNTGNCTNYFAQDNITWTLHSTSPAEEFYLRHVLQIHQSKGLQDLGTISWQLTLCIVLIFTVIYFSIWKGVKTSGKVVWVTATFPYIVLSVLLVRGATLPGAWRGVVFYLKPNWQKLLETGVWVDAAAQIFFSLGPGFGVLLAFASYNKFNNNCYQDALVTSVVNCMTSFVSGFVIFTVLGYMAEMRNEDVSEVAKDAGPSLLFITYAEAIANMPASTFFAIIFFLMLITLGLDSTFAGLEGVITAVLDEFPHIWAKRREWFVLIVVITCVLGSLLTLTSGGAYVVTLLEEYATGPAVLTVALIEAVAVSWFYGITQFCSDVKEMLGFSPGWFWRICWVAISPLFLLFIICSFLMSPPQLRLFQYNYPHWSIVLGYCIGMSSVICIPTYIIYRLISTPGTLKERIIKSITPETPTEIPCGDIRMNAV
T3 sequence (Q63380 1-617): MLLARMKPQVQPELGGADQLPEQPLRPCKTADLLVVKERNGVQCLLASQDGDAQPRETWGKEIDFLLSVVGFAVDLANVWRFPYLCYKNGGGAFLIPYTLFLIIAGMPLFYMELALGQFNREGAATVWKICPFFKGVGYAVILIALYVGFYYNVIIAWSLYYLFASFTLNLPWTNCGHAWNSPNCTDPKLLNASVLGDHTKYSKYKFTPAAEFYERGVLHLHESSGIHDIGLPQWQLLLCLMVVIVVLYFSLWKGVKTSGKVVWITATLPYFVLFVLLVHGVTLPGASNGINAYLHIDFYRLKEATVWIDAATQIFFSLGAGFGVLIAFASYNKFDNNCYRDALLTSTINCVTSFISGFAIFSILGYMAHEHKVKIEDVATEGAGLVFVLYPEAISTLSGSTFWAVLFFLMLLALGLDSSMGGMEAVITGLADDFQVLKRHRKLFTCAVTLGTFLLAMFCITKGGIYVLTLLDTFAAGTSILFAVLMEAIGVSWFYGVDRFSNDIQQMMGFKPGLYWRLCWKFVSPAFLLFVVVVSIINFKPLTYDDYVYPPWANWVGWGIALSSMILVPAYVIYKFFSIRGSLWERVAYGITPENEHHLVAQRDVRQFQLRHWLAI

Structure (SMILES) | cytotoxicity [1] | DAT receptor occupancy ([2]; 20.6 mg intravenous) | DAT receptor occupancy ([2]; 61.8 mg intravenous) | DAT receptor occupancy ([2]; 91.2 mg intravenous) | average DAT receptor occupancy ([2]; 6 hours after the last dose) | average DAT receptor occupancy ([2]; during the following 6 hours (12 hour scan)) | inhibition of serotonin uptake [3] | IC50 [4]
C[C@@H]1NC(C)(C)CO[C@@]1(O)c1cccc(Cl)c1 [Formula (I).HCl, (+)-(2S, 3S)2-(3-chlorophenyl)-3,5,5-trimethyl-2-morpholinol hydrochloride] | No cytotoxicity was observed | – | – | – | – | – | – | –
C[C@@H]1NC(C)(C)CO[C@@]1(O)c1cccc(Cl)c1 [Formula (I), (+)-(2S,3S)-2-(3-chlorophenyl)-3,5,5-trimethyl-2-morpholinol] | – | 14±0.38% | 37±8.0% | 47±6.8% | 29±5.3% | 27±11.3% | no inhibition | 1.1 µM
